Laboratory results reported in ChEMBL document CHEMBL1129613, “Design, synthesis, and biological evaluation of ellipticine-estradiol conjugates” (J Med Chem, 1996).

Columns and labels:
U-251 = experiment: Cytotoxic effect on growth inhibition of CNS cancer U251 cells; assay type: functional; conditions: Homo sapiens
MCF7 [1] = experiment: Cytotoxic effect of growth inhibition of breast cancer MCF-7/ADR-RES cells; assay type: functional; conditions: Homo sapiens
IGROV-1 [2] = experiment: Cytotoxic effect on growth inhibition of ovarian cancer IGROVI cells; assay type: functional; conditions: Homo sapiens
MCF7 [3] = experiment: Cytotoxic effect on growth inhibition of breast cancer MCF-7 cells; assay type: functional; conditions: Homo sapiens
LOX IMVI = experiment: Cytotoxic effect on growth inhibition of melanoma LOX IMVI cells; assay type: functional; conditions: Homo sapiens
SN12C = experiment: Cytotoxic effect on growth inhibition of renal cancer SN12C cells; assay type: functional; conditions: Homo sapiens
HCT-116 = experiment: Cytotoxic effect on growth inhibition of colon cancer HCT116 cells; assay type: functional; conditions: Homo sapiens
MOLT-4 [4] = experiment: Cytotoxic effect on leukemia MOLT-4 cells; assay type: functional; conditions: Homo sapiens
NCI-H322M [5] = experiment: Cytotoxic effect on growth inhibition of nonsmall cell lung cancer NCI-H322M cells; assay type: functional; conditions: Homo sapiens
[6] = target: Estrogen receptor (Rattus norvegicus) (UniProt P06211+Q62986); experiment: Relative binding affinity for estrogen receptor; assay type: protein assay
MDA-MB-231 = experiment: Cytotoxic effect on growth inhibition of breast cancer MDA-MB-231/ATCC cells; assay type: functional; conditions: Homo sapiens
PC-3 = experiment: Cytotoxic effect on growth inhibition of prostate cancer PC-3 cells; assay type: functional; conditions: Homo sapiens
Hs-578T = experiment: Cytotoxic effect on growth inhibition of breast cancer HS 578T cells; assay type: functional; conditions: Homo sapiens
MOLT-4 [7] = experiment: Cytotoxic effect on growth inhibition of leukemia MOLT-4 cells; assay type: functional; conditions: Homo sapiens
[8] = target: DNA topoisomerase 2-alpha (Homo sapiens, UniProt P11388); experiment: Inhibitory activity against topoisomerase II determined in catenation inhibition assay
NCI-H322M [9] = experiment: Cytotoxic effect on nonsmall cell lung cancer NCI-H322M cells; assay type: functional; conditions: Homo sapiens
IGROV-1 [10] = experiment: Cytotoxic effect on ovarian cancer IGROVI cells; assay type: functional; conditions: Homo sapiens

Sequence of DNA topoisomerase 2-alpha (P11388 whole entry): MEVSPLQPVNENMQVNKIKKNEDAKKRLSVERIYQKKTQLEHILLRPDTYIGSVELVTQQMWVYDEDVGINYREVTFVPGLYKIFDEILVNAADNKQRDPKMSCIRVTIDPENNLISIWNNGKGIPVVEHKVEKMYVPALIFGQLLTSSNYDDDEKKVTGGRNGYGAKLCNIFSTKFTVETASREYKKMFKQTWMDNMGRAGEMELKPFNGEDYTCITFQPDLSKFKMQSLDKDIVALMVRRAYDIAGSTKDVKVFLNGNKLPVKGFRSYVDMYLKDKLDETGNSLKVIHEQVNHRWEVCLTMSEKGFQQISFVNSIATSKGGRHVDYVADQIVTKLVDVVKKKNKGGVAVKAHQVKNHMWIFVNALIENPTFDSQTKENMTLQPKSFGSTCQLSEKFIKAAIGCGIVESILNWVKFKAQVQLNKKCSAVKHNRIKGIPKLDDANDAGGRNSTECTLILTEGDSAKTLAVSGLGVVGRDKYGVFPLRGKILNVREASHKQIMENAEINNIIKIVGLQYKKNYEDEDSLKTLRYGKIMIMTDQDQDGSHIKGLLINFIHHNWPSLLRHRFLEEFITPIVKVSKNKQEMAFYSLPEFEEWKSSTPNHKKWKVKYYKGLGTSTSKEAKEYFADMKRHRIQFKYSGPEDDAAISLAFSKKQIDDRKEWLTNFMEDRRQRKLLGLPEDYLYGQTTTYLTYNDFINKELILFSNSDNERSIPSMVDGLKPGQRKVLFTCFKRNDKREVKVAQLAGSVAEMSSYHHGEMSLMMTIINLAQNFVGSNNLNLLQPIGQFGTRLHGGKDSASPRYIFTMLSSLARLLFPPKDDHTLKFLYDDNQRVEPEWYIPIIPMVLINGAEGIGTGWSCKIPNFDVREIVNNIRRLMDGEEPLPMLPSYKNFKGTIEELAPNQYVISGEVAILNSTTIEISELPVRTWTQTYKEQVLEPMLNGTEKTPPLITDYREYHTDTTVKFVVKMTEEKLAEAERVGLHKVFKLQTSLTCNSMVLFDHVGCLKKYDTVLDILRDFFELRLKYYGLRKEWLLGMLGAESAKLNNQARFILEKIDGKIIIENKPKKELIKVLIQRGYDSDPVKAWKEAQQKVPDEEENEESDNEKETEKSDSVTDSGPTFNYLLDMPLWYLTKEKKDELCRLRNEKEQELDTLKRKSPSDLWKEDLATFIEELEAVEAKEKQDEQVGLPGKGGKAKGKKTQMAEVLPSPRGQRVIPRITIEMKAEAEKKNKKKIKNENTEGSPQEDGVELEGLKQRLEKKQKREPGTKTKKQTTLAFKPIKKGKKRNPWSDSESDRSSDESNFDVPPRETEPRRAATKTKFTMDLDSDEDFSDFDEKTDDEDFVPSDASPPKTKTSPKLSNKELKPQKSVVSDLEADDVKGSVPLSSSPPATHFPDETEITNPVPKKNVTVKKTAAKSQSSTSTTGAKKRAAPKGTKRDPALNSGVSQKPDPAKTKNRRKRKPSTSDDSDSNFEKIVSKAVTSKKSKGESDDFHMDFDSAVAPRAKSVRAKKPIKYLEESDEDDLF

Row | SMILES | GI50 (U-251) | GI50 (MCF7 [1]) | GI50 (IGROV-1 [2]) | GI50 (MCF7 [3]) | GI50 (LOX IMVI) | GI50 (SN12C) | GI50 (HCT-116) | GI50 (MOLT-4 [4]) | GI50 (NCI-H322M [5]) | relative binding affinity (RBA) [6] | GI50 (MDA-MB-231) | GI50 (PC-3) | GI50 (Hs-578T) | GI50 (MOLT-4 [7]) | IC50 [8] | GI50 (NCI-H322M [9]) | GI50 (IGROV-1 [10])
1 | Cc1c2ccncc2c(C)c2c1[nH]c1ccccc12 [ELLIPTECINE] | 0.93 µM | 0.74 µM | 0.86 µM | 0.71 µM | 0.56 µM | 0.73 µM | 0.29 µM | 0.38 µM | 0.31 µM | – | – | – | – | – | – | – | –
2 | C[C@]12CC[C@@H]3c4ccc(O)cc4CC[C@H]3[C@@H]1CC[C@@]2(O)CC(=O)O | – | – | – | – | – | – | – | – | – | 0.039 | – | – | – | – | – | – | –
3 | Cc1c2ccncc2c(C)c2c1[nH]c1ccc(C(=O)NCCCCCCNC(=O)C[C@]3(O)CC[C@H]4[C@@H]5CCc6cc(O)ccc6[C@H]5CC[C@@]43C)cc12 | 55.9 µM | > 100 µM | > 100 µM | – | 51.4 µM | > 100 µM | 31.2 µM | – | 28 µM | 0.303 | 34.7 µM | 74 µM | > 100 µM | 38.3 µM | > 200 µM | – | –
4 | Cc1c2c(c(C)c3c1[nH]c1ccccc13)CN(C(=O)NCCCCCCNC(=O)C[C@]1(O)CC[C@H]3[C@@H]4CCc5cc(O)ccc5[C@H]4CC[C@@]31C)C=C2 | 7.64 µM | 9.96 µM | 8.53 µM | 3.39 µM | 7.97 µM | 9.56 µM | 3.55 µM | 2.9 µM | – | 0.132 | 19.7 µM | 3.51 µM | 16.6 µM | – | 24.1 µM | 2.68 µM | –
5 | C[C@]12CC[C@@H]3c4ccc(O)cc4CC[C@H]3[C@@H]1CC[C@@]2(O)CC(=O)NCCCCCCN | – | – | – | – | – | – | – | – | – | 0.041 | – | – | – | – | – | – | –
6 | CC(C)(C)OC(=O)NCCCCCCNC(=O)C[C@]1(O)CC[C@H]2[C@@H]3CCc4cc(O)ccc4[C@H]3CC[C@@]21C | – | – | – | – | – | – | – | – | – | 0.056 | – | – | – | – | – | – | –
7 | Cc1c2cnccc2c(C)c2c1c1ccccc1n2CC(=O)NCCCCCCNC(=O)C[C@]1(O)CC[C@H]2[C@@H]3CCc4cc(O)ccc4[C@H]3CC[C@@]21C | 72.4 µM | > 100 µM | – | > 100 µM | 50.9 µM | > 100 µM | 39.9 µM | 46.3 µM | 71.4 µM | – | > 100 µM | 57.1 µM | 46.8 µM | – | > 200 µM | – | > 100 µM
8 | CCOC(=O)C[C@]1(O)CC[C@H]2[C@@H]3CCc4cc(O)ccc4[C@H]3CC[C@@]21C | – | – | – | – | – | – | – | – | – | 3.66 | – | – | – | – | – | – | –
